The supplement of paper PMC10307832

Key:
Assay in all cases: relative viability (nuclei count vs DMSO), 5 days (fraction); higher = more cells survive
[1] = compound: C#Cc1cccc(Nc2ncnc3cc(OCCOC)c(OCCOC)cc23)c1 [Erlotinib] + COc1cc2c(Oc3ccc(NC(=O)C4(C(=O)Nc5ccc(F)cc5)CC4)cc3F)ccnc2cc1OCCCN1CCOCC1 [Foretinib] (partner 0.25 µM)
Procedure, shortened: (§1)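 Relative viability equals treated-well nuclei counts divided by vehicle-well nuclei counts. Counts came from 4× images of lung cancer cell lines grown in 1536-well plates for 5 days after pin-tool dosing on the day after seeding. Dosing used one drug alone or a fixed anchor-drug dose plus five library-drug doses (not always all listed) in √10 steps, and values are medians of duplicate plates.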

[2] = compound: O=C(Nc1c[nH]nc1-c1nc2ccc(CN3CCOCC3)cc2[nH]1)NC1CC1 [AT9283] + Cc1nc(Nc2ncc(C(=O)Nc3c(C)cccc3Cl)s2)cc(N2CCN(CCO)CC2)n1 [Dasatinib] (partner 0.075 µM)
Procedure, shortened: as §1

[3] = compound: O=C(Nc1c[nH]nc1-c1nc2ccc(CN3CCOCC3)cc2[nH]1)NC1CC1 [AT9283] + CCNC(=O)c1noc(-c2cc(C(C)C)c(O)cc2O)c1-c1ccc(CN2CCOCC2)cc1 [Luminespib] (partner 0.01 µM)
Procedure, shortened: as §1

[4] = compound: O=C(Nc1c[nH]nc1-c1nc2ccc(CN3CCOCC3)cc2[nH]1)NC1CC1 [AT9283] + Cc1cc(Nc2cc(N3CCN(C)CC3)nc(Sc3ccc(NC(=O)C4CC4)cc3)n2)n[nH]1 [Tozasertib] (partner 0.1 µM)
Procedure, shortened: as §1

[5] = compound: C#Cc1cccc(Nc2ncnc3cc(OCCOC)c(OCCOC)cc23)c1 [Erlotinib] + CC1(C)CCC(c2ccc(Cl)cc2)=C(CN2CCN(c3ccc(C(=O)NS(=O)(=O)c4ccc(N[C@H](CCN5CCOCC5)CSc5ccccc5)c(S(=O)(=O)C(F)(F)F)c4)cc3)CC2)C1 [Navitoclax] (partner 0.5 µM)
Procedure, shortened: as §1

Cell Line | relative viability ([1]; first compound 0.02 µM) | relative viability ([1]; first compound 0.2 µM) | relative viability ([1]; first compound 0.6325 µM) | relative viability ([1]; first compound 2 µM) | relative viability ([2]; first compound 0.003 µM) | relative viability ([2]; first compound 0.03 µM) | relative viability ([2]; first compound 0.09487 µM) | relative viability ([2]; first compound 0.3 µM) | relative viability ([3]; first compound 0.003 µM) | relative viability ([3]; first compound 0.03 µM) | relative viability ([3]; first compound 0.09487 µM) | relative viability ([3]; first compound 0.3 µM) | relative viability ([4]; first compound 0.003 µM) | relative viability ([4]; first compound 0.03 µM) | relative viability ([4]; first compound 0.09487 µM) | relative viability ([4]; first compound 0.3 µM) | relative viability ([5]; first compound 0.02 µM) | relative viability ([5]; first compound 0.2 µM) | relative viability ([5]; first compound 0.6325 µM) | relative viability ([5]; first compound 2 µM)
NCI-H1793 | 0.575 | 0.421 | 0.541 | 0.408 | 0.405 | 0.39 | 0.256 | 0.138 | 0.194 | 0.184 | 0.179 | 0.136 | 0.327 | 0.383 | 0.201 | 0.171 | 0.447 | 0.325 | 0.297 | 0.387
NCI-H1944 | 0.833 | 0.54 | 0.579 | 0.56 | 0.199 | 0.178 | 0.116 | 0.111 | 0.778 | 0.483 | 0.195 | 0.205 | 0.256 | 0.257 | 0.23 | 0.224 | 0.989 | 0.912 | 0.941 | 0.796
BEN | 0.679 | 0.663 | 1 | 0.872 | 0.256 | 0.369 | 0.311 | 0.14 | 0.28 | 0.336 | 0.198 | 0.107 | 0.598 | 0.503 | 0.387 | 0.376 | 0.0747 | 0.0625 | 0.0619 | 0.0646
H3255 | 0.808 | 0.624 | 0.472 | 0.171 | 0.323 | 0.316 | 0.331 | 0.235 | 0.713 | 0.905 | 0.969 | 0.254 | 0.664 | 0.358 | 0.2 | 0.161 | 0.449 | 0.147 | 0.0899 | 0.0743
NCI-H1437 | 1.31 | 1.23 | 1.24 | 1.2 | 0.342 | 0.379 | 0.224 | 0.114 | 1.26 | 1.12 | 0.681 | 0.344 | 0.426 | 0.321 | 0.215 | 0.238 |  | 1.15 |  | 0.976
CAL-12T | 1.04 | 1.04 | 0.513 | 0.484 | 0.495 | 0.204 | 0.124 | 0.12 | 0.149 | 0.548 | 0.627 | 0.18 | 0.31 | 0.29 | 0.212 | 0.215 | 1.35 | 1.31 | 0.614 | 0.546
NCI-H23 | 0.909 |  | 1.24 | 0.631 | 0.726 | 0.67 | 0.464 | 0.327 | 0.216 | 0.234 | 0.204 | 0.167 | 0.413 | 0.603 | 0.276 | 0.285 | 0.894 | 0.88 | 1.16 | 0.596
ChaGo-K-1 | 0.913 | 0.836 | 0.923 | 0.879 | 0.547 | 0.504 | 0.225 | 0.257 | 0.63 | 0.422 | 0.289 | 0.26 | 0.196 | 0.208 | 0.215 | 0.236 | 0.68 | 0.981 | 1.25 | 0.777
